Values joined by “and” are separate entries in the source; they are usually repeats but may differ in a detail not shown here. Identical values can stand only once.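 48-hour exposure; five concentrations; linearly interpolated endpoints. Here, GI50 denotes the concentration required for 50% inhibition of growth. TGI denotes the concentration required for complete inhibition of growth.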 Bounds are passed on as bounds.

This is an account of results in PubChem BioAssay (NCI).

Common to all, as to test: growth of human tumour cells (NCI), 48 h
The subject of experiment [1] is DMS 114 small cell lung.
Experiment [2] has as its system KM20L2 colon.
In experiment [3] the test system is BT-549 breast.
Experiment [4] relates to DU-145 prostate.
Experiment [5] concerns MDA-MB-231 breast.
Experiment [6] concerns MDA-MB-435.
Experiment [7] has as its system MDA-N.
The subject of experiment [8] is T-47D breast.
Experiment [9] concerns RXF-631 renal.

`COc1cc2cc3c4c(cc(OC)c(OC)c4c2cc1OC)CCN3C(=O)CCCC(=O)O`: the TGI in [1] and in [2] was more than 100 µM in each case.

With `COc1ccc(/C=C/C(=O)c2sc(N)nc2C)cc1`, the TGI in experiment [1] and in experiment [2] was more than 100 µM each time.

Consider `C[N+](C)(C)CCOP(=O)(O)OP(=O)([O-])OCC1CCC(n2ccc(N)nc2=O)O1` (stereo not drawn), for which the TGI in experiment [3], in experiment [4], in [5], in [6], in [7] and in [8] was more than 100 µM each time.

Take `CC(=O)OC1(C#N)CC2OC1C1C2N1C(=O)c1ccccc1` (stereo not drawn): the TGI in experiment [1], in experiment [2] and in experiment [9] was more than 100 µM throughout.

Regarding `OC(c1cc(C(O)(C(F)(F)F)C(F)(F)F)ncn1)(C(F)(F)F)C(F)(F)F`, the TGI in [4], in experiment [5], in experiment [6], in experiment [7] and in experiment [8] was more than 10 µM each time.

As for `CCN(CC)CCn1ncc2ccc3c(c(=O)c4cccnc4n3CCN(CC)CC)c21`, the TGI was 5.11 µM in experiment [3]; more than 8.66 µM in [4]; 4.07 µM in [5]; 1.94 µM in [6]; 2.15 µM in [7]; more than 9.48 µM in [8].

As for `C/C(CC(O)(C(F)(F)F)C(F)(F)F)=N\N`, the TGI in experiment [3], in experiment [4], in [5], in [6], in experiment [7] and in experiment [8] was more than 10 µM in each case.

Consider `CN(C)c1cccc(-c2cc(=O)c3ccccc3[nH]2)c1`, for which, in experiment [1], the GI50 was 46 µM and the TGI was more than 100 µM. For the same compound, in experiment [2], the GI50 is 34.5 µM and the TGI is more than 100 µM.

For the compound `CCc1cccc(C(C)CC)c1N=C(NC(=O)c1ccccc1C(=O)NC(=Nc1c(CC)cccc1C(C)CC)SC)SC` (stereo not drawn), the TGI was 79.6 µM in experiment [2] and more than 100 µM in [9].

On to `O=C(NCCCN1CCN(CCCNC(=O)c2cnc3ccccc3n2)CC1)c1cnc2ccccc2n1`, for which the TGI in [1], in experiment [2] and in experiment [9] was more than 100 µM throughout.

Turning to `CC(=O)CC(=O)CCCC(=O)Nc1ccc(Cl)cc1C`, the TGI in experiment [1], in [2] and in experiment [9] was more than 100 µM each time.

As for `CC1=C(N2CC2)C(=O)C(CO)=C(N2CC2)C1=O`, the TGI was 1.95 µM in experiment [3]; 1.3 µM in experiment [4]; 0.169 µM and 0.151 µM in experiment [6]; 0.138 µM and 0.106 µM in experiment [7]; 0.529 µM in experiment [8]. Besides, the GI50 in experiment [5] is 0.14 µM; in [6], 0.0386 µM and 0.0393 µM; in experiment [7], 0.0284 µM and 0.0259 µM.

Consider `Cc1cc(C)nc(NS(=O)(=O)c2ccc(Nc3c4ccccc4nc4c(C(=O)NCCN(C)C)ccc(Cl)c34)cc2)n1`, for which the TGI in experiment [1] worked out at 3.94 µM; in experiment [2], 12 µM.

In [2], `NC(=O)c1ccccc1NC(=O)C(=O)C(C(=O)c1ccc2ccccc2c1)C1OC(=O)c2ccccc21` (stereo not drawn) had a TGI of 81.4 µM.

Regarding `CCOP(=O)(CCP(=O)(OCC)OCC)OCC.C[CH2][Sn]([Cl])([Cl])[CH2]C`, the GI50 was 17.8 µM in [3]; 16.7 µM in [1]; more than 100 µM in [4]; more than 68.2 µM in experiment [2]; 25 µM in experiment [5]; more than 100 µM in experiment [6]. The GI50 is more than 100 µM in experiment [7] and 18.5 µM in experiment [8]. Further, the TGI in [3] is 33.8 µM; in experiment [1], 34.5 µM; in experiment [4], more than 100 µM; in experiment [2], more than 100 µM; in experiment [5], 92.2 µM; in experiment [6] it was more than 100 µM. For the same compound, the TGI in experiment [7] is more than 100 µM; in experiment [8], 40.9 µM.

Consider `C=CCC(C(=O)OC)C1(C(=O)OC)c2[nH]c3ccccc3c2CCN1Cc1ccccc1` (stereo not drawn), for which the TGI in experiment [1] and in experiment [2] was more than 100 µM in each case.

For the compound `C/C(=N\NC(=O)CC(=O)Nc1ccc(C)cc1)c1cc2ccccc2oc1=O`, the TGI in experiment [1] and in experiment [2] was more than 100 µM each time.

`Nc1ccc2c(c1)C(=O)c1ccc(F)cc1-2`: the TGI in experiment [3], in [4], in experiment [5], in [6], in experiment [7] and in experiment [8] was more than 100 µM throughout.

With `O=C(CCc1nnc2s/c(=C\c3ccccc3)c(=O)n12)Nc1cc(Cl)ccc1Cl`, the TGI in experiment [1], in experiment [2] and in [9] was more than 100 µM throughout.

As to `CCCCCCCCCCCCCCCCOC(=O)C(C(=O)OCCCCCCCCCCCCCCCC)[N+](C)(C)CCOC(C)=O`, the TGI in [1] stood at 41.8 µM; in [2] it was 50 µM; in experiment [9], 30.5 µM.

As to `Cc1cc2c3ccccc3n(C)c2c2c1C(=O)c1ccccc1C2=O`, the figures for the TGI in experiment [1] and in experiment [9] were 46 µM and 98.5 µM, respectively.

On to `N=C(N)n1ncc(Cl)c(Cl)c1=O`, for which the TGI in experiment [1] stood at 3.66 µM; in [2] it was 19.3 µM; in experiment [9] it was 3.36 µM.

`C/C(CN1C(=O)c2ccccc2C1=O)=N\NS(=O)(=O)c1ccccc1`: the TGI in experiment [1], in experiment [2] and in experiment [9] was more than 100 µM each time.

`CC1=C(C(=O)Nc2cccc(C(F)(F)F)c2)C(c2ccc(O)cc2)C(C(=O)Nc2cccc(C(F)(F)F)c2)=C(C)N1`: the TGI in experiment [1] was found to be 45.8 µM; in experiment [2], 54.6 µM; in [9], 41.6 µM.

On to `O=[N+]([O-])c1cccc(C2SCc3nc4ccccc4n32)c1` (stereo not drawn), for which the TGI in [1] and in experiment [2] was more than 100 µM each time.

The compound `CN(C)CCNC(=O)c1cccc2nc3ccc4ccccc4c3nc12` came in with a TGI in experiment [1] of 0.293 µM.

In the case of `COc1c(OC(C)=O)cc2c(OC(C)=O)c1CC(C)CC(OC)C(O)C(C)/C=C(\C)C(OC(N)=O)C(OC)/C=C\C=C(/C)C(=O)N2` (stereo not drawn), the TGI in [1], in experiment [2] and in experiment [9] was more than 100 µM each time.

For the compound `CC(=O)NNc1nc(C)c(C(=O)NNC(=O)C(=O)Nc2ccc(C)c(C)c2)s1`, the TGI in experiment [1] and in experiment [2] was more than 100 µM throughout.

For `O=C(CC(=O)N1N=C(n2ccc3ccccc32)CC1c1ccccc1)Nc1cccc(Cl)c1` (stereo not drawn), the TGI in experiment [2] and in experiment [9] was more than 100 µM throughout.

On to `Nc1nc(-c2ccccc2)c(-c2ccccc2)c(-c2nc(N)nc(-c3ccccc3)c2-c2ccccc2)n1`, for which the TGI in experiment [3], in [4], in [5], in experiment [6], in [7] and in [8] was more than 100 µM in each case.

`CC(=O)Nc1ccc2nncnc2c1`: the TGI in [3], in experiment [4], in experiment [5], in [6], in experiment [7] and in experiment [8] was more than 100 µM each time.

Consider `CCSC1(SCC)CCN(C=NC(C)(C)C)C1`, for which the TGI in experiment [1], in experiment [2] and in [9] was more than 100 µM each time.

For the compound `CC(=O)OC1C=CC2CCN3C(=O)c4cc5c(cc4[C@H]1C23)OCO5` (stereo partly drawn), the TGI in [1] and in experiment [2] was more than 100 µM each time.

`COC(=O)CCC(NC(=S)N/N=C(\C)c1ccccn1)C(=O)OC` (stereo not drawn): the TGI in experiment [1] was 75.8 µM; in experiment [2], more than 100 µM; in [9], more than 100 µM.

Turning to `COc1ccc(/C=C2/C(=O)N(C(=O)c3ccccc3O)N=C2C)cc1OC`, the TGI is more than 100 µM in [3]; 3.61 µM in experiment [1]; more than 100 µM in experiment [4]; more than 100 µM in experiment [2]; more than 100 µM in experiment [5]; more than 100 µM in experiment [6]. This compound also displayed a TGI in [7] of more than 100 µM.

Take `O=C(c1cc(=O)c2ccc(O)cc2o1)c1ccc(Cl)cc1Cl`: the TGI in experiment [1] is more than 64 µM; in experiment [2] it was more than 100 µM; in [9], more than 100 µM.

As for `Cc1ccc2nc3c(Cl)cc(=O)cc-3sc2c1`, the TGI in experiment [1] is 48.1 µM; in experiment [9], more than 100 µM.

On to `O=C1C=C2S[C@H]3C[C@]2(C=C1Br)c1c(c(O)c2c4c1=NCCC=4C=N2)N3`, for which the TGI stood at 0.404 µM in experiment [1]; 4.09 µM in [4]; 1.93 µM in experiment [2]; 1.16 µM in [5]; 0.305 µM in [6]; 0.314 µM in experiment [7]. Further, in [8], the TGI amounted to 0.89 µM.

`CCOC(=O)C1=C(Nc2ccccc2)OC/C1=N\NC(=O)Cc1ccccc1`: the TGI in [1], in experiment [2] and in experiment [9] was more than 50 µM in each case.

On to `CCOC(=O)CC(=O)ON(C)C(=O)Cc1ccccc1`, for which the TGI in experiment [1], in experiment [2] and in experiment [9] was more than 100 µM throughout.

Regarding `CCOc1ccccc1NC(=O)C(=O)CC(=O)C1=C(C)Nc2ccccc2S1`, the TGI in experiment [2] was more than 100 µM.

For the compound `COCCc1c(C)c(C#N)c2n(C)c3ccccc3n2c1=O`, the TGI in experiment [3], in [4], in experiment [5], in experiment [6], in experiment [7] and in experiment [8] was more than 10 µM in each case.

With `C=C1C(=O)OC2CCCCC3OC3C12` (stereo not drawn), the figures for the TGI in experiment [2] and in experiment [9] were 22.8 µM and 19.2 µM, respectively.

For the compound `COc1cccc(Nc2nc(NNC(=O)Cc3ccccc3)nc(NNC(=O)c3ccncc3)n2)c1`, the GI50 in [4], in [5] and in experiment [7] was more than 100 µM each time. The TGI in experiment [4], in experiment [5], in experiment [6] and in [7] was more than 100 µM in each case.

Consider `O=C(c1cc2ccccc2[nH]1)C(O)(c1cc2ccccc2[nH]1)c1cc2ccccc2[nH]1`, for which the TGI in [1], in experiment [2] and in [9] was more than 246 µM in each case.

Regarding `OC(c1ccccc1)(c1ccccc1)c1ccccn1`, the TGI in experiment [1], in [2] and in experiment [9] was more than 100 µM each time.

For the compound `CCCOc1ccc(/C(Cl)=C(\C=O)c2ccc(OC)c(OC)c2)cc1OCCC`, the figures for the TGI in experiment [1] and in experiment [2] were 25.3 µM and more than 100 µM, respectively.

Consider `Cc1ccc(SSCCCS(=O)O)cc1`, for which the TGI in [1] is 37.1 µM; in experiment [2], more than 100 µM; in experiment [9], more than 100 µM.

For the compound `N/C(=N\O)c1ncc(-c2ccc(C(F)(F)F)cc2)c(NC2CCCCCC2)n1`, the GI50 in experiment [3] is 4.54 µM; in [4], 6.78 µM and 3.38 µM; in experiment [5], 3.96 µM; in experiment [6], 3.76 µM; in [8] it was 6.89 µM and 3.59 µM. Moreover, the TGI was 18.2 µM in experiment [3]; 16.1 µM in [4]; 19.3 µM in experiment [5]; 17 µM in experiment [6]; 16.8 µM in experiment [8].

As to `C/C=C/C=N/N(c1nnc(-c2ccccc2)c(-c2ccccc2)n1)S(=O)(=O)c1ccc(C)cc1`, the TGI worked out at 37.6 µM in experiment [1], 26.1 µM in experiment [2] and 73.2 µM in experiment [9].

In the case of `CC(C)(O)[C@@H]1CCC(C)([C@H]2[C@@H](O)CC3(C)C4CC(OC5OC(CO)C(O)C(O)C5O)C5C(C)(C)[C@@H](OC6OCC(O)C(O)C6O)CC[C@@]56C[C@@]46CC[C@]23C)O1` (stereo partly drawn), the TGI in experiment [1] and in [2] was more than 100 µM throughout.

As for `O=c1[nH]c(=S)[nH]c2c1sc(=S)n2-c1ccccc1`, the TGI in [1] and in experiment [2] was more than 100 µM throughout.

`NC(=S)N/N=C(/CC(=O)c1ccc([N+](=O)[O-])cc1)C(=O)Nc1ncc([N+](=O)[O-])s1`: the TGI in experiment [1], in experiment [2] and in [9] was more than 100 µM throughout.
